According to US10639304B2, “Kinase inhibitors” (priority 2013, dated 2020):

Tests used:
[1] = system: leukemic cells derived from ALL, AML, CML and CLL; test: Initial analysis of cytotoxicity in leukemic cells; assay type: cell-based; settings: for toxicity to the leukemic cells tested: initial analysis of 12 compounds ALD-1 through ALD-12; for anti-leukemic activity: structure-activity summary
Protocol: (§1) The cells were seeded at an initial density of 50,000 cells per well in 100 μl of cell culture media constituted with or without drugs at increasing doses ranging from 1 to 10^7 fold. The assays were performed in 96-well cell culture plates which were maintained at 37° C. in 5% CO2 atmosphere for 24 h, 48 h, 72 h and 96 h. At the end of each incubation point; cell viability was measured by Cell Titer-Blue® Assay. The measurements were then expressed as the percentage of viable cells compared to the survival of respective control groups (untreated cells) defined as the maximum cell viability. The data obtained was further analyzed using Prism nonlinear regression software (Graphpad Software) for the curve-fitting and determination of IC50 values.

[2] = system: Gleevec resistant K562 cells; test: Cytotoxicity in Gleevec resistant K562 cells (Cell Titer-Blue); assay type: cell-based; settings: for IC50: Homo sapiens, K562
Protocol: Hela (established from epithelioid cervical carcinoma), were purchased from the American Type Culture Collection (ATCC, Manassas, Va.). SN12C and ACHN cells were provided by Dr. Charles Sawyers. […] Normal lymphocyte 9093 was purchased from ATCC. K562 and normal lymphocytes were maintained in RPMI media (Life Technologies) supplemented with 20% fetal bovine serum (FBS). […] All cells were maintained at 37° C. under a humidified atmosphere of 95% air and 5% CO2.
as §1

Src = target: T1, Src (Homo sapiens, UniProt P12931); test: Src phosphorylation in K562 cells, Western blotting; assay type: cell-based; settings: FIGS. 9 and 10
T1 construct: reduced the levels of phosphorylated Src in K562 cells; endogenous in cells; host or cells: K562
T1 sequence (P12931 whole entry): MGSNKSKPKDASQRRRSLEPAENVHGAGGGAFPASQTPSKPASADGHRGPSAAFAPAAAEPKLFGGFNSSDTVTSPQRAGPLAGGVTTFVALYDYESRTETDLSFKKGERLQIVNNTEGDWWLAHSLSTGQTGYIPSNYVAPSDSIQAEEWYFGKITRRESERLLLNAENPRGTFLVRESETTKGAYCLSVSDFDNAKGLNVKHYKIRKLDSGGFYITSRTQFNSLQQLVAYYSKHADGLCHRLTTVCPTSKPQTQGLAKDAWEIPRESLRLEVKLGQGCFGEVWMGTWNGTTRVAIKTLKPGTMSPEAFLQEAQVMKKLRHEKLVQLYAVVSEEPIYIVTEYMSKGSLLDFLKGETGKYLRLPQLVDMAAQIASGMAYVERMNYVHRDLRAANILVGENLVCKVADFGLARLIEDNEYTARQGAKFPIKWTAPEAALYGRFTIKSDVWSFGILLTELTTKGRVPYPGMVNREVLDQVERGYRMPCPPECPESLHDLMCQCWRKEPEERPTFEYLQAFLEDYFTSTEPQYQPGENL

T315I mutant Bcr-Abl = target: T2, T315I mutant Bcr-Abl (Homo sapiens, UniProt P00519, T315I); test: Bcr-Abl phosphorylation in K562 cells, Western blotting; assay type: cell-based; settings: in the presence of Gleevec, FIGS. 5 and 6
T2 construct: K562 cells that express the T315I mutant Bcr-Abl; BCR (fusion partner, P11274 N-terminal part); endogenous in cells; host or cells: K562 (Gleevec-resistant); the other entry of the earlier key: BCR (P11274, Breakpoint cluster region protein)

STAT5 = STAT5 phosphorylation in K562 cells, Western blotting; assay type: cell-based; settings: FIG. 7
Crkl = Crkl phosphorylation in K562 cells, Western blotting; assay type: cell-based; settings: FIG. 8
[3] = system: PARP cleavage in Gleevec-resistant CML cell lines; test: PARP cleavage (apoptosis marker), Western blotting; assay type: cell-based; settings: FIG. 4
LCK = target: T3, LCK (Homo sapiens, UniProt P06239); test: LCK phosphorylation in K562 cells, Western blotting; assay type: cell-based; settings: FIG. 11
T3 construct: K562 cells were plated in 10 cm dishes; endogenous in cells; host or cells: K562
T3 sequence (P06239 whole entry): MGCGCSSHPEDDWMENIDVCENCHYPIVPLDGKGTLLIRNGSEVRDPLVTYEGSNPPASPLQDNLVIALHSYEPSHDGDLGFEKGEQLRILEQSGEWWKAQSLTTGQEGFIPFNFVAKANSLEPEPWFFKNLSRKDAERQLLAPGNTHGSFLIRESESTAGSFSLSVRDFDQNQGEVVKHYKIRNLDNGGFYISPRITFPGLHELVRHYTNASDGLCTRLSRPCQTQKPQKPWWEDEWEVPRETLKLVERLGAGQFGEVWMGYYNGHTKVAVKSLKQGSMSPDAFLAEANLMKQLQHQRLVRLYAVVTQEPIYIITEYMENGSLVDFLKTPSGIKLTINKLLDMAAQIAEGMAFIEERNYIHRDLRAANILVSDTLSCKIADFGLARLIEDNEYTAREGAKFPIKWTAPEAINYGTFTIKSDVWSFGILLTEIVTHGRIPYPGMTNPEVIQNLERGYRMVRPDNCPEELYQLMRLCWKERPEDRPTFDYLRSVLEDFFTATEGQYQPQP

Yes = target: T4, Yes (Homo sapiens, UniProt P07947); test: Yes phosphorylation in K562 cells, Western blotting; assay type: cell-based; settings: FIG. 11
T4 construct: K562 cells were plated in 10 cm dishes; endogenous in cells; host or cells: K562
T4 sequence (P07947 whole entry): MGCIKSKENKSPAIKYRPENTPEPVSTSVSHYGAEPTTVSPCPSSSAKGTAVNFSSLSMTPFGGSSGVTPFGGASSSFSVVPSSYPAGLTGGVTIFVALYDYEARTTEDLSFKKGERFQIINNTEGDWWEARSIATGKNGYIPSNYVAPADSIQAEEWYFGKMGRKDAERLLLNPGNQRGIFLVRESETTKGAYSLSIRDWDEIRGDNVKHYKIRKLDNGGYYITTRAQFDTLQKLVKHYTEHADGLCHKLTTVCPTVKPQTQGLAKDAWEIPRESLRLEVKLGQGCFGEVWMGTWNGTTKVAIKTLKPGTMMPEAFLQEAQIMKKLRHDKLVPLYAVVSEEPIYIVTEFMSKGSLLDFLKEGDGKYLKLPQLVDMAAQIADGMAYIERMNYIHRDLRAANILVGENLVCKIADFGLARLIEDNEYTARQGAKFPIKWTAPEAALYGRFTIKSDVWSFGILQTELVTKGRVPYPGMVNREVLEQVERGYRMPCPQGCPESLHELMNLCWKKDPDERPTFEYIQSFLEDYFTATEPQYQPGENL

[4] = system: BV173-GFP, a Gleevec resistant chronic myeloid leukemic cells; test: Preclinical efficacy, BV173-GFP leukemia in NSG-B2m mice; assay type: in vivo; settings: up to 250 mg/kg intraperitoneal for 5 weeks
Protocol: Two days after leukemia cell injection, the mice received intraperitoneal treatments of DMSO, or ALD-10 in DMSO. Following injection cells, the mice were randomized into two groups (6/group) to receive DMSO, or ALD-10. The mice received up to 250 mg/kg of ALD10 for 5 weeks. […] The median survival for ALD-10 and DMSO treated mice was 42 and 39 days, respectively.

Lyn = target: T5, Lyn (Homo sapiens, UniProt P07948); test: Lyn phosphorylation in K562 cells, Western blotting; assay type: cell-based; settings: FIG. 11
T5 construct: K562 cells were plated in 10 cm dishes; endogenous in cells; host or cells: K562
T5 sequence (P07948 whole entry): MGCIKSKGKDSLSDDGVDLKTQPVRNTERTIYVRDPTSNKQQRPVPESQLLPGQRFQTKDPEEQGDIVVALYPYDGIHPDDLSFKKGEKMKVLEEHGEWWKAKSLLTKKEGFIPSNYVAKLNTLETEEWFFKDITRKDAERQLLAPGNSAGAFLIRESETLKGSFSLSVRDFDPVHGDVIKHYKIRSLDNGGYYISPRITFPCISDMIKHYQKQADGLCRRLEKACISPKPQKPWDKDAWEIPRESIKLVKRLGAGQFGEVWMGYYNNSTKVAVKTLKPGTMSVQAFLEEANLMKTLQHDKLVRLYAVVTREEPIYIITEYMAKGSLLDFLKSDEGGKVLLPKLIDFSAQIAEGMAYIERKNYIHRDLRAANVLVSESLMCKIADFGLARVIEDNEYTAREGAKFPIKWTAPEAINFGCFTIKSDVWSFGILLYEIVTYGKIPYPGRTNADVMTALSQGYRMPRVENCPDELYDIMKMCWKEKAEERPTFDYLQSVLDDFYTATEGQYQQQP

Bcr-Abl = settings: in vitro, more potent than imatinib; cited from earlier work

Row | SMILES | toxicity to the leukemic cells tested [1] | cytotoxicity to Gleevec resistant CML (GRCML) ([2]; Gleevec resistant CML, cell line not named) | phosphorylation of Src (Src) | anti-leukemic activity [1] | phosphorylation of Bcr-Abl Kinase (T315I mutant Bcr-Abl) | IC50 [2] [nM] | STAT5 phosphorylation (STAT5) | CrkL phosphorylation (Crkl) | PARP cleavage (apoptotic cell death) [3] | phosphorylation of Lck (LCK) | phosphorylation of Yes (Yes) | activity of the mice compared to DMSO treated mice [4] | liver tumor mass compared to DMSO treated mice [4] | median survival ([4]; DMSO 39 days, Log-rank P=0.0036, Gehan-Breslow-Wilcoxon P=0.0045) [days] | survival (Kaplan-Meier) ([4]; DMSO treated 40 days) [days] | phosphorylation of Lyn (Lyn) | cytotoxicity (in words) ([2]; Gleevec resistant K562 cells, FIG. 1) | affinity for the ATP binding site on Bcr-Abl relative to imatinib (Bcr-Abl)
1 | COC(=O)c1ccc(NC(=O)CSc2nc3cc4c(cc3cc2C)OCCO4)cc1 [ALD-1, 4-[2-(8-Methyl-2,3-dihydro-[1,4]dioxino[2,3-g]quinolin-7-ylsulfanyl)-acetylamino]-benzoic acid methyl ester] | non-toxic |  |  |  |  |  |  |  |  |  |  |  |  |  |  |  |  | 
2 | CCc1cc2cc3c(cc2nc1SCC(=O)Nc1ccc(OC)cc1OC)OCCO3 [ALD-4, N-(2,4-Dimethoxy-phenyl)-2-(8-ethyl-2,3-dihydro-[1,4]dioxino[2,3-g]quinolin-7-ylsulfanyl)-acetamide] | toxic | highly cytotoxic | inhibited | anti-leukemic activity | block phosphorylation |  |  |  |  |  |  |  |  |  |  |  |  | 
3 | CCc1cc2cc3c(cc2nc1SCC(=O)Nc1ccccc1C)OCCO3 [ALD-10, 2-(8-Ethyl-2,3-dihydro-[1,4]dioxino[2,3-g]quinolin-7-ylsulfanyl)-N-o-tolyl-acetamide] | toxic |  | inhibited | anti-leukemic activity | block phosphorylation | 74.6 | inhibited | inhibited | induction of PARP cleavage | significantly inhibited | significantly inhibited | considerably more active | reduced liver tumor mass | 42 | 48 | significantly inhibited |  | 
4 | CCc1cc2cc3c(cc2nc1SCC(=O)Nc1ccc(OC)cc1)OCCO3 [ALD-11, 2-(8-Ethyl-2,3-dihydro-[1,4]dioxino[2,3-g]quinolin-7-ylsulfanyl)-N-(4-methoxy-phenyl)-acetamide] | non-toxic |  | did not affect | inactive |  |  | did not affect | did not affect | did not reveal PARP cleavage | not |  |  |  |  |  | not | not cytotoxic | 
5 | CCc1cc2cc3c(cc2nc1SCC(=O)Nc1ccccc1OC)OCCO3 [ALD-12, 2-(8-ethyl-2,3-dihydro-[1,4]dioxino[2,3-g]quinolin-7-ylsulfanyl)-N-(2-methoxy-phenyl)-acetamide] | toxic |  | inhibited | anti-leukemic activity | block phosphorylation | 69.7 | inhibited | inhibited | induction of PARP cleavage | significantly inhibited | significantly inhibited |  |  |  |  | significantly inhibited |  | 
6 | Cc1cn(-c2cc(NC(=O)c3ccc(C)c(Nc4nccc(-c5cccnc5)n4)c3)cc(C(F)(F)F)c2)cn1 [Nilotinib] |  |  |  |  |  |  |  |  |  |  |  |  |  |  |  |  |  | up to 50 times
